Like-named read-outs stand apart in the source and are kept apart here.
Legend:
[1] = tested on: HL-60 human promyelocyte leukemia cells; assay: Growth inhibition assay in HL-60 cells (72 h, cell count); type: cell-based; conditions: for IC50: Homo sapiens
Experimental: The human promyelocyte leukemia cell line HL-60 was purchased from the ATCC (American Type Culture Collection, Rockville, Md., USA). The cells were cultured in RPMI 1640 medium with 10% heat-inactivated fetal calf serum (FCS) (GIBCO, Grand Island Biological Co., Grand Island, N.Y., USA) and with 1% penicillin/streptomycin in a humidified atmosphere with 5% CO2.
The cell numbers were determined by means of a microcell counter CC-108 (Sysmex, Kobe, Japan). For the tests, cells in the logarithmic growth phase were used.
Logarithmically-growing HL-60 cells were prepared in a density of 0.1×10^6 cells/ml in tissue culture flasks and incubated with various concentrations of the stilbene derivatives to be examined. After 72 hours, the cells were counted by means of the microcell counter. The viability of the cells was determined by means of trypan blue staining. Numbers of viable cells were calculated as results.
After 72 hours, the cells were counted by means of the microcell counter. The viability of the cells was determined by means of trypan blue staining. Numbers of viable cells were calculated as results.

COX 1 = biological target: T1, COX 1 (Homo sapiens, UniProt P23219); assay: COX (human) inhibitor screening assay, COX 1; type: biochemical
T1 construct: purchased IBL Products Company, Hamburg, Germany

COX 2 = biological target: T2, COX 2 (Homo sapiens, UniProt P35354); assay: COX (human) inhibitor screening assay, COX 2; type: biochemical; conditions: for COX2/COX1 Ratio: ratio of COX 2 IC50 to COX 1 IC50
T2 construct: purchased IBL Products Company, Hamburg, Germany
T2 sequence (P35354 18-604): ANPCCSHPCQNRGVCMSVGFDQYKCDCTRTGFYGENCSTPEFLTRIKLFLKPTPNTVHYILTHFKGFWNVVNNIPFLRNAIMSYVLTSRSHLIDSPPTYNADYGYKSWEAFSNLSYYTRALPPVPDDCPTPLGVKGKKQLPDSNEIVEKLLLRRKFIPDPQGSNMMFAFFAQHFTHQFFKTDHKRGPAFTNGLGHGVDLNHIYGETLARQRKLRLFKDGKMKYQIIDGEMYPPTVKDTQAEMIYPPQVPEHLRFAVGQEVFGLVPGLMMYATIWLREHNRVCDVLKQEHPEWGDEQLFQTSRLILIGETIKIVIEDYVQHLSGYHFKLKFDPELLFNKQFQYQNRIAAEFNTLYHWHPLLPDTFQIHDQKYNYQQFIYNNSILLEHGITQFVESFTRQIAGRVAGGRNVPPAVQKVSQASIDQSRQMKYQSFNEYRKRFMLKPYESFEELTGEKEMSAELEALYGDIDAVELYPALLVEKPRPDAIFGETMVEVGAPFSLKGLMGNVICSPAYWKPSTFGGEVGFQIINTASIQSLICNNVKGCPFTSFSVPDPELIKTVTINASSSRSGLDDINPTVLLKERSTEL

[2] = tested on: HT-29 human colon tumor cells; assay: Analysis of intracellular dATP pools in HT-29 cells; type: cell-based; conditions: 4 μM, HT-29, average
Experimental: (§1) The analysis of the intracellular dNTP concentrations was carried out according to the method of Garrett and Santi (Garrett, C.; Santi, D. V. A Rapid and Sensitive High-Pressure Liquid Chromatography Assay for Deoxyribonucleoside Triphosphates in Cell Extracts. Anal Biochem. 1979 Nov. 1; 99(2): 268-73.)
(§2) The action of hexahydroxystilbene (“M8”) on the intracellular dNTP concentrations in HL-60 cells was examined. The study was performed as described above. The cells were incubated with 6.25, 12.5 and 25 μM of hexahydroxystilbene, and then the dNTP pools were determined. […] The dATP concentrations dropped during treatment with 12.5 and 25 μM of hexahydroxystilbene to 27 and 41% of the starting values. The depletion of the dATP pools was especially impressive in the case of HT-29 human colon tumor cells; the dATP values dropped there as early as after treatment with 4 μM of the substance in an average of 1.5% of the starting values. […] The action of the substance can also be clarified by this impressive imbalance of the dNTP pools that are precursors of the DNA synthesis. The results of the experiment with HL-60 cells are plotted in FIG. 3.

HL-60 cells [3] = assay: Analysis of intracellular dNTP pools by HPLC in HL-60 cells; type: cell-based, human
Experimental: as §1, §2

PC-3 = assay: Clonogenic test series (7 d) in PC-3 prostate cancer cells; type: cell-based; conditions: Homo sapiens, PC-3, 168 h
DU-145 = assay: Clonogenic test series (7 d) in DU-145 prostate cancer cells; type: cell-based; conditions: Homo sapiens, DU-145, 168 h
HL-60 cells [4] = assay: Cell cycle distribution by FACS in HL-60 cells; type: cell-based, human; conditions: 24 hours
Experimental: HL-60 cells were incubated in the presence of hexahydroxystilbene. After 24 hours, the cells were washed, centrifuged and fixed in alcohol. Then, […] and examined by means of FACS analysis. Then, the cell cycle phase distribution was calculated.

LNCaP = assay: Clonogenic test series (7 d) in LNCaP prostate cancer cells; type: cell-based; conditions: Homo sapiens, 168 h, LNCaP cells respond to 5-alpha-dihydrotestosterone
HL-60 cells [5] = assay: Apoptosis induction, Hoechst 33258/propidium iodide double staining in HL-60 cells; type: cell-based, human; conditions: 24 hours
Experimental: Then, the cells were treated for one hour with Hoechst 33258 (HO, Sigma, St. Louis, Mo., USA) and propidium iodide (PI, Sigma, St. Louis, Mo., USA) (5 μg/ml and 2 μg/ml). Then, the cells were photographed by means of a fluorescence microscope, and the cells were divided morphologically into early apoptotic, late apoptotic and necrotic cells. […] The results are plotted in FIG. 4.

[6] = HL-60, read-out: IC50 (50% inhibition of cell growth), HL-60, 2nd determination series, 72 hours of incubation
[7] = HL-60, 1st determination series, 72 hours, read-out: IC50 (μM), inhibition of growth of HL-60 human promyelocyte leukemia cells
[8] = HL-60, Table 3, 72 h, read-out: Growth inhibition (72 h) HL-60

T1 sequence (P23219 24-599): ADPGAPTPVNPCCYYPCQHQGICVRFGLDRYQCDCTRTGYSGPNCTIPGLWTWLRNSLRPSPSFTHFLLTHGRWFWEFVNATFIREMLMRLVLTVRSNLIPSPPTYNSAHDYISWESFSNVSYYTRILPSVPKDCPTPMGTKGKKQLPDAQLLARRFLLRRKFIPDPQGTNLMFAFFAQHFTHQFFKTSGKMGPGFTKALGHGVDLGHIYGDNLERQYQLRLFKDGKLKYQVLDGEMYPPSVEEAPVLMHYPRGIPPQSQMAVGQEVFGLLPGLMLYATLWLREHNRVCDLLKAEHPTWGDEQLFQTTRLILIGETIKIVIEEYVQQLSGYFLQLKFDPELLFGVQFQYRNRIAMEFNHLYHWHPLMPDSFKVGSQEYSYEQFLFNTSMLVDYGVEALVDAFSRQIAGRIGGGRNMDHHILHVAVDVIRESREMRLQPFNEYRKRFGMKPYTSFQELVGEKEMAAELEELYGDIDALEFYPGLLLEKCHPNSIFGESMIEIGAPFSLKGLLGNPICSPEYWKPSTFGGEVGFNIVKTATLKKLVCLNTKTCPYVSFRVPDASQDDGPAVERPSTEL

IC50 [1, 7] | IC50 [1, 8] | IC50 (COX 1) | IC50 (COX 2) | IC50 (PC-3) | IC50 (DU-145) | IC50 (LNCaP) | COX2/COX1 Ratio (COX 2) | SMILES | also measured
4 µM | 4 µM | 0.5 µM | 0.001 µM | 2.5 µM | 25 µM | 3.4 µM |  | Oc1cc(C=Cc2cc(O)c(O)c(O)c2)cc(O)c1O [M8, 3,3′,4,4′,5,5′-Hexahydroxystilbene] | IC50 [1, 6]: 6.25 µM; IC50 ([1]; HL-60, adding 50 or 100 μM of vitamin C, read-out: IC50 of growth inhibition, HL-60, with added vitamin C): 2 µM; dATP values, % of the starting values [2]: 1.5%; dCTP pools, % of the control values (HL-60 cells [3]; 6.25 μM): 110%; dTTP pools, % of the starting values (HL-60 cells [3]; 6.25 μM): 84%; dATP concentrations, % of the starting values (HL-60 cells [3]; 12.5 μM): 27%; dCTP pools, % of the control values (HL-60 cells [3]; 12.5 μM): 137%; dTTP pools, % of the starting values (HL-60 cells [3]; 12.5 μM): 72%; dATP concentrations, % of the starting values (HL-60 cells [3]; 25 μM): 41%; dCTP pools, % of the control values (HL-60 cells [3]; 25 μM): 199%; dTTP pools, % of the starting values (HL-60 cells [3]; 25 μM): 27%; Cell cycle distribution, G2-M phase, in words (HL-60 cells [4]): a depletion of cells resulted in the G2-M phase; Cell cycle distribution, S phase, in words (HL-60 cells [4]): stopped the cells in S phase; Cells with induction of apoptosis (HL-60 cells [5]; 6.25 μM): 68.5%; Apoptosis induction compared with resveratrol, in words (HL-60 cells [5]): induced apoptosis in these cells in the case of significantly lower concentrations than resveratrol
9 µM | 9 µM | 5 µM | 0.01 µM | 8 µM | 30 µM | 9.5 µM | 0.002 | Oc1ccc(C=Cc2cc(O)c(O)c(O)c2)cc1 [M9, 3,4,4′,5-Tetrahydroxystilbene] | 
 | > 100 µM |  |  | 35 µM | 25 µM | 21 µM |  | COc1cc(C=Cc2cc(OC)cc(OC)c2)cc(OC)c1 [M1, 3,3′,5,5′-Tetramethoxystilbene] | 
 |  |  |  |  |  |  |  | O=C1O[C@H]([C@@H](O)CO)C(O)=C1O [Vitamin C, reference compound] | Action on cell growth of HL-60, in words ([1]; 50 or 100 μM, alone): no action on the cell growth
25 µM | 25 µM | 10 µM | 0.6 µM | 21 µM | 68 µM | > 100 µM | 0.06 | COc1cc(C=Cc2cc(OC)c(OC)c(OC)c2)cc(OC)c1 [M2, 3,3′,4,5,5′-Pentamethoxystilbene] | 
10 µM | 10 µM | 0.01 µM | 0.005 µM | 5 µM | 23 µM | 7.5 µM | 0.5 | Oc1cc(O)cc(C=Cc2cc(O)c(O)c(O)c2)c1 [M7, 3,3′,4,5,5′-Pentahydroxystilbene] | 
12.5 µM | 12.5 µM | 0.01 µM | < 0.001 µM | 16 µM | 17 µM | 84 µM | <0.1 | Oc1cc(O)cc(C=Cc2cc(O)cc(O)c2)c1 [M6, 3,3′,5,5′-Tetrahydroxystilbene] | 
9 µM | 9 µM | 5 µM | 0.005 µM | 18 µM | 58 µM | 33 µM |  | Oc1cc(O)cc(C=Cc2ccc(O)c(O)c2)c1 [M10, 3,3′,4′,5-Tetrahydroxystilbene] | 
12 µM | 12 µM |  |  | 16 µM | 10 µM | 5 µM |  | Oc1ccc(C=Cc2cc(O)cc(O)c2)cc1 [Resveratrol, 3,4′,5-Trihydroxystilbene, reference compound] | IC50 [1, 6]: 12 µM
 | 5 µM |  |  | 3 µM | 6 µM | 6.25 µM |  | COc1cccc(C=Cc2cc(OC)cc(OC)c2)c1 [M5, 3,3′,5-Trimethoxystilbene] | 

SMILES | IC50 [1, 7] | IC50 [1, 8] | IC50 (COX 1) | IC50 (COX 2) | IC50 (PC-3) | IC50 (DU-145) | IC50 (LNCaP) | COX2/COX1 Ratio (COX 2) | also measured
COc1ccc(C=Cc2cc(OC)c(OC)c(OC)c2)cc1 [M4, 3,4,4′,5-Tetramethoxystilbene] |  | 20 µM |  |  | 3 µM | 0.4 µM | 0.4 µM |  | 
COc1cc(C=Cc2ccc(OC)c(OC)c2)cc(OC)c1 [M5A, 3,3′,4′,5-Tetramethoxystilbene] |  | 25 µM |  |  | 35 µM | 30 µM | 6.25 µM |  | 
COc1cc(C=Cc2cc(OC)c(OC)c(OC)c2)cc(OC)c1OC [M3, 3,3′,4,4′,5,5′-Hexamethoxystilbene] | > 100 µM | > 100 µM | 10 µM | 0.5 µM | 5.5 µM | 12.5 µM | 37 µM | 0.05 | 

From US20070191627A1, “Stilbene derivatives and their use in medicaments” (priority 2003, published 2007)
